Series [1] is described as follows: Selectivity index, ratio of […] for human […] cells.
The subject of series [2] is Human immunodeficiency virus 1. Kind of series: Antiviral activity against HIV1 MN in human C8166 cells assessed as reduction of antigen gp120 production by ELISA. Type of series: functional, organism-based. The settings on record: Human immunodeficiency virus 1, MN.
A short description of series [3]: Cytotoxicity against human C8166 cells by XTT assay. It counts as cell-based. The settings on record: read-out: TC50 (the source's name).
Series [4] in a line: Inhibition of monoclonal antibody ADP358/HIV1 gp120 interaction at 500 mg/mL.
The nature of series [5]: Inhibition of monoclonal antibody ADP358/HIV1 gp120 interaction at 100 mg/mL.
The nature of series [6]: Inhibition of monoclonal antibody ADP358/HIV1 gp120 interaction at 4 mg/mL.
Series [7] can be described thus: Inhibition of monoclonal antibody ADP358/HIV1 gp120 interaction at 0.8 mg/mL.
A short description of series [8]: Inhibition of monoclonal antibody ADP358/HIV1 gp120 interaction at 20 mg/mL.
The nature of series [9]: Inhibition of monoclonal antibody ADP358/HIV1 gp120 interaction at 80 mg/mL.
For series [10], the system named is Human immunodeficiency virus 1. The series can be described thus: Antiviral activity against HIV1 3B in human C8166 cells assessed as neutralization of virus infectivity treated prior infection measured after 60 mins at 37 degC. It counts as functional.
The nature of series [11]: Inhibition of monoclonal antibody ADP358/HIV1 gp120 interaction at 16 mg/mL.
The nature of series [12]: Inhibition of monoclonal antibody ADP358/HIV1 gp120 interaction at 3.2 mg/mL.
Series [13] is described as follows: Inhibition of HIV1 recombinant gp120/sCD4 interaction by ELISA. (In general: ELISA stands for enzyme-linked immunosorbent assay.)
Series [14] is described as follows: Inhibition of monoclonal antibody ADP358/HIV1 gp120 interaction at 400 mg/mL.

Values after ≈ are worked out from the molar mass of the structure shown. Some results are limits rather than exact numbers.

For the compound `COc1cc2c(c(OC)c1OC)[C@H]1O[C@@H](CO)[C@H](O)[C@@H](O)[C@@H]1OC2=O`, the “Selectivity Index” value in series [1] was 1.25. The EC50 in series [2] stood at 200 µg/mL (≈ 561 µM). Also, the CC50 in series [3] worked out at 250 µg/mL (≈ 702 µM).

Regarding `COc1c(O)cc2c(c1O)[C@@H]1O[C@H](CO)[C@@H](O)[C@H](O)[C@H]1OC2=O` [BERGENIN], the “Selectivity Index” value in [1] is greater than 25. In addition, the inhibition stood at 92% in series [4]; 84% in series [5]; 39% in series [6]; 0% in [7]; 62% in series [8]. The EC50 in series [2] was 40 µg/mL (≈ 122 µM). Moreover, the CC50 in series [3] is greater than 1000 µg/mL.

As to `O=C1O[C@H]2[C@H](O)[C@@H](O)[C@H](CO)O[C@@H]2c2c1cc(O)c(O)c2O` [NORBERGENIN], the inhibition in series [9] turned out to be 69%; in series [11] it was 57%; in series [12] it was 33%; in series [14], 84%. The Activity in series [10] is 99%; in series [13], “Dose-dependent effect”. In addition, the “Selectivity Index” value in series [1] is greater than 25. For the same compound, the EC50 in series [2] amounted to 20 µg/mL (≈ 63.6 µM). Also, the CC50 in series [3] is greater than 500 µg/mL.

As usually defined, the EC50 is the midpoint of the concentration-response curve. What is called inhibition is the percentage by which the read-out fell short of the control. Read a low inhibition as a response near the control.

The values are drawn from ChEMBL document CHEMBL1158199, “Constituents of Ardisia japonica and their in vitro anti-HIV activity” (J Nat Prod, 1996).
